According to patent publication US12366579B2, “Sulfur-heterocycle exchange chemistry and uses thereof” (University of Virginia Patent Foundation, priority 2019, dated 2025):

Legend:
[1] = tested on: HEK293T soluble proteomes; test: LC-MS chemical proteomics of probe-modified sites in cell proteomes; assay type: binding, human; settings: for tyrosine specificity, Y/K ratio of modified sites: LC-MS chemical proteomics, FIG. 4A
Procedure: (§1) Proteomes were diluted to 2.3 mg/mL in PBS and sample aliquots (432 μL) were treated with sulfonyl-triazole or -fluoride probes at the indicated concentrations (5 μL, 100× stock in DMSO), mixed gently and incubated for 1 h at room temperature. Probe-modified proteomes were subjected to CuAAC conjugation to desthiobiotin-PEG3-azide (10 μL of 10 mM stock in DMSO; final concentration of 200 μM) using TCEP (10 μL of fresh 50 mM stock in water; 1 mM final concentration), TBTA ligand (33 μL of a 1.7 mM 4:1 t-butanol/DMSO stock, 100 μM final concentration), and CuSO4 (10 μL of 50 mM stock, 1 mM final concentration). Samples were mixed by vortexing and then incubated for 1 h at room temperature. Excess reagents were removed by chloroform-methanol extraction as previously described^51. Protein pellets were re-suspended in 500 μL of 6M urea/25 mM ammonium bicarbonate followed by DTT reduction and IAA alkylation as previously described^5. Excess reagents were removed by chloroform/methanol extraction as described above, and the protein pellet was re-suspended in 500 μL of 25 mM ammonium bicarbonate and then digested to peptides using trypsin/Lys-C (7.5 μg in 15 μL of ammonium bicarbonate, sequencing grade from Promega, Madison, Wisconsin, United States of America) was added to the mixture and incubated for 3 hrs at 37° C. Probe-modified peptides were enriched by avidin affinity chromatography, eluted, and prepared for LC-MS analysis as previously described^51.
A top 10 data-dependent acquisition MS method was used.
Sulfonyl-probe modifications of tyrosine, lysine, and other amino acids were included as a variable (common) modification of +635.27374 Da. […] A Byonic score of 300 was applied for a more inclusive initial evaluation of the search results and thereby consider more possible probe-modified sites. MS1 and MS2 spectra corresponding to the highest-scoring tyrosine- and lysine (internal or non-C terminal)-modified sequences (˜50-100 peptides) were manually verified. […] Distinct peptides containing probe-modified amino acid residues (termed sites) were determined by identifying all unique razor protein and site combinations across all of the proteomes tested.
To compare amino acid residues modified by sulfonyl probes, protein and peptide identifications were accomplished as described above with variable (common) modification of +635.27374 Da on the following amino acid residues: cysteine, aspartic acid, glutamic acid, histidine, lysine, methionine, asparagine, glutamine, arginine, serine, threonine, tryptophan, and tyrosine. For these amino acid comparisons, carbamidomethylation (+57.021464 Da) of cysteines was searched as a variable/common modification to allow for the potential of probe modification on cysteines. Comparisons of probe-modified sites across all probes and cell lines tested were performed using the R package ggplot2 (online at tidyverse.org). Venn diagrams for comparisons were generated using the VennDiagram R package^52.
Proteomes were digested with trypsin protease and desthiobiotin-modified peptides enriched by avidin affinity chromatography, released, and analyzed by high-resolution liquid chromatography-mass spectrometry (LC-MS). Probe-modified peptide-spectrum matches (PSMs) that met a quality control confidence criteria of ≥300 Byonic score^31 and ≤5 ppm mass accuracy were selected for further manual evaluation.

[2] = tested on: human cell proteomes (HEK293T, A549, DM93, H82, and Jurkat cells); test: LC-MS chemical proteomics of probe-modified tyrosine sites across 5 cell proteomes; assay type: binding; settings: HHS-465 and -475 together; 100 μM, 1 hr, 25° C.
Procedure: as §1, with “Probe-modified peptides were enriched by avidin affinity chromatography, eluted, and prepared for LC-MS analysis as previously described^51.” left out

HEK293T, Jurkat cells = test: Live cell chemical proteomic profiling with SuTEx probes; assay type: cell-based, human; settings: 100 μM, 2 hr, 37° C.; membrane and soluble fractions; both probes
Procedure: Cells grown to ˜90% confluency in 10 cm plates were treated with DMSO vehicle or sulfonyl-triazole probe (10 μL of 1000×DMSO stock) in serum-free media for the indicated concentrations and times at 37° C. with 5% CO2. After treatment, cells were washed with cold PBS twice before harvesting and preparation for gel-based chemical proteomic evaluation as described above. For LC-MS studies, protein concentrations were normalized to 2.3 mg/mL and 432 μL (for 1 mg final protein amount) were used for sample preparation as detailed below.
Proteomes were diluted to 2.3 mg/mL in PBS and sample aliquots (432 μL) were treated with sulfonyl-triazole or -fluoride probes at the indicated concentrations (5 μL, 100× stock in DMSO), mixed gently and incubated for 1 h at room temperature. Probe-modified proteomes were subjected to CuAAC conjugation to desthiobiotin-PEG3-azide (10 μL of 10 mM stock in DMSO; final concentration of 200 μM) using TCEP (10 μL of fresh 50 mM stock in water; 1 mM final concentration), TBTA ligand (33 μL of a 1.7 mM 4:1 t-butanol/DMSO stock, 100 μM final concentration), and CuSO4 (10 μL of 50 mM stock, 1 mM final concentration). Samples were mixed by vortexing and then incubated for 1 h at room temperature. Excess reagents were removed by chloroform-methanol extraction as previously described^51. […]

[3] = HPLC assay, p-cresol reactivity against a sulfonyl probe mixture; assay type: physicochemical; settings: TMG 2.2 equivalents, 0° C.
Procedure: The following reagents were prepared and kept at 0° C. prior to use: 0.1 M solution of caffeine in acetonitrile (ACN), 1.0 M solution of n-butylamine, p-cresol, tetramethylguanidine (TMG), acetic acid in ACN, and 10 mM solution of the probes in a mixture of DMF-ACN (v/v=10:90) are made.
(i) p-Cresol reactivity against a probe mixture: A solution of p-cresol (16.5 μmol, 3.3 eq) was premixed with 1.1, 2.2, or 3.3 eq of TMG. To initiate the reaction, the p-cresol/TMG solution was added to a sulfonyl probe mixture of HHS-475/HHS-482/HHS-SF-1 (500 μL, 5 μmol, 1.0 eq each) and the reaction was kept at 0° C. The reaction progress was monitored by taking out a 50.0 μL aliquot of the reaction mixture at various time points followed by addition of a 10 μL quenching solution of acetic acid (0.5 M final, 5.0 μmol) and the internal caffeine standard (0.05 M final, 0.5 μmol). Sample (1.0 μL) was injected and analyzed by reverse-phase HPLC on a Shimadzu 1100 Series spectrometer (Shimadzu, Kyoto, Japan) with UV detection at 254 nm. Reaction progress was evaluated by monitoring consumption of sulfonyl probes because all probes generate a shared p-cresol and n-butylamine product. Chromatographic separation was performed using a Phenomenex Kinetex C18 column (2.6 μm, 50 mm×4.6 mm, Phemonenex, Torrance, California, United States of America). […]

SMILES | tyrosine specificity, Y/K ratio of modified sites [1] | tyrosine sites identified in aggregate across 5 cell proteomes [2] | distinct tyrosine sites measured in live cell studies, in total per cell line (HEK293T, Jurkat cells) | time to consumption of probe by p-cresol [3] [min] | fold reduction in total number of modified sites compared with HHS-465 and HHS-475 [1] [fold]
C#CCNC(=O)c1ccc(S(=O)(=O)n2nccn2)cc1 [HHS-465, 4-((2H-1,2,3-Triazol-2-yl)sulfonyl)-N-(prop-2-yn-1-yl)benzamide] | 2.5 | ~8,000 sites | ~3,500 sites | – | –
C#CCNC(=O)c1ccc(S(=O)(=O)F)cc1 [HHS-SF-1, 4-(Prop-2-yn-1-ylcarbamoyl)benzenesulfonyl fluoride, reference compound] | 2.3 | – | – | > 90 | ~4
